According to patent publication US20250154173A1 (Merck Sharp & Dohme LLC, priority 2023, published 2025):

Target: T1, GST-RIPK1 (recombinant GST-RIPK1 kinase domain (residues 1-327)) (Homo sapiens, UniProt Q13546)
T1 construct: recombinant GST-RIPK1 kinase domain (residues 1-327) enzyme produced from baculovirus-transfected Sf21 cells; host or cells: baculovirus-transfected Sf21 insect cells
T1 sequence (Q13546 1-327): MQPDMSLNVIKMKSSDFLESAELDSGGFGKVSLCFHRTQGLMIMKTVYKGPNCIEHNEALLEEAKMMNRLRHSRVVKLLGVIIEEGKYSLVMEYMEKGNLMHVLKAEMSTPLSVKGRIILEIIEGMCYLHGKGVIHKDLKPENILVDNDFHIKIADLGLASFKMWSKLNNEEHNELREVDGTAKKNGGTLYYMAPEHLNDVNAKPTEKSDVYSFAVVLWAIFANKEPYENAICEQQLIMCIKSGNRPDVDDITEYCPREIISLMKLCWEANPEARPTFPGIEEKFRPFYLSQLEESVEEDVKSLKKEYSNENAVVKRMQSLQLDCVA
Assay: RIPK1-ADP-Glo Enzymatic Assay
Type: biochemical
Conditions: ten-point titration, top compound concentration of 100000 nM; 25 nM GST-RIPK1, 300 μM ATP, 3 μM dephosphorylated-MBP; 30 min pre-incubation, 150 min reaction
Procedure, shortened: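 ADP-Glo luminescence quantifies ADP formed over 150 minutes by 25 nM Sf21-produced GST-RIPK1 (1-327) using 300 μM ATP and 3 μM dephosphorylated MBP, following 30-minute compound preincubation at 1% DMSO. Ten-point 1:3 series from 100000 nM gave EC50 via four-parameter sigmoidal regression.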

SMILES	EC50
N#Cc1ccnc(O[C@H]2C[C@@]3(C2)O[C@@H]2CC[C@@H](c4cc(F)cc(F)c4)N2C3=O)n1 [Example 9.20, 2-{[(1r,3R,5′S,7a′R)-5′-(3,5-difluorophenyl)-3′-oxotetrahydro-3′H-spiro[cyclobutane-1,2′-pyrrolo[2,1-b][1,3]oxazol]-3-yl]oxy}pyrimidine-4-carbonitrile]	53 nM
O=C1N2[C@@H](CC[C@H]2c2cc(F)cc(F)c2)O[C@]12C[C@H](Oc1nccc3nccn13)C2 [Example 9.21, (1r,3R,5′S,7a′R)-5′-(3,5-difluorophenyl)-3-[(imidazo[1,2-c]pyrimidin-5-yl)oxy]tetrahydro-3′H-spiro[cyclobutane-1,2′-pyrrolo[2,1-b][1,3]oxazol]-3′-one]	14 nM
O=C1N2[C@@H](CC[C@H]2c2cc(F)cc(F)c2)O[C@]12C[C@H](Oc1ncnn3cccc13)C2 [Example 9.22, (1r,3R,5′S,7a′R)-5′-(3,5-difluorophenyl)-3-[(pyrrolo[2,1-f][1,2,4]triazin-4-yl)oxy]tetrahydro-3′H-spiro[cyclobutane-1,2′-pyrrolo[2,1-b][1,3]oxazol]-3′-one]	11 nM
O=C1N2[C@@H](CC[C@H]2c2cc(F)cc(F)c2)O[C@]12C[C@H](Oc1nccc3ncnn13)C2 [Example 9.23, (1r,3R,5′S,7a′R)-5′-(3,5-difluorophenyl)-3-[([1,2,4]triazolo[1,5-c]pyrimidin-5-yl)oxy]tetrahydro-3′H-spiro[cyclobutane-1,2′-pyrrolo[2,1-b][1,3]oxazol]-3′-one]	55 nM
O=C1N2[C@@H](CC[C@H]2c2ccccc2)O[C@]12C[C@H](Oc1ncnn3cccc13)C2 [Example 9.24, (1r,3R,5′S,7a′R)-5′-phenyl-3-[(pyrrolo[2,1-f][1,2,4]triazin-4-yl)oxy]tetrahydro-3′H-spiro[cyclobutane-1,2′-pyrrolo[2,1-b][1,3]oxazol]-3′-one]	11 nM
O=C1N2[C@@H](CC[C@H]2c2cc(F)cc(F)c2)O[C@]12C[C@H](Oc1cccn3nnnc13)C2 [Example 9.25, (1r,3R,5′S,7a′R)-5′-(3,5-difluorophenyl)-3-[(tetrazolo[1,5-a]pyridin-8-yl)oxy]tetrahydro-3′H-spiro[cyclobutane-1,2′-pyrrolo[2,1-b][1,3]oxazol]-3′-one]	210 nM
O=C1N2[C@@H](CC[C@H]2c2cc(F)cc(F)c2)O[C@]12C[C@H](Oc1cccc3ncnn13)C2 [Example 9.26, (1r,3R,5′S,7a′R)-5′-(3,5-difluorophenyl)-3-[([1,2,4]triazolo[1,5-a]pyridin-5-yl)oxy]tetrahydro-3′H-spiro[cyclobutane-1,2′-pyrrolo[2,1-b][1,3]oxazol]-3′-one]	276 nM
O=C1N2[C@@H](CC[C@H]2c2ccc(F)cc2)O[C@]12C[C@H](Oc1ncnn3cccc13)C2 [Example 9.27, (1r,3R,5′S,7a′R)-5′-(4-fluorophenyl)-3-[(pyrrolo[2,1-f][1,2,4]triazin-4-yl)oxy]tetrahydro-3′H-spiro[cyclobutane-1,2′-pyrrolo[2,1-b][1,3]oxazol]-3′-one]	12 nM
N#Cc1ccnc(O[C@H]2C[C@@]3(C2)O[C@@H]2CC[C@@H](c4ccc(F)cc4)N2C3=O)c1 [Example 9.28, 2-{[(1r,3R,5′S,7a′R)-5′-(4-fluorophenyl)-3′-oxotetrahydro-3′H-spiro[cyclobutane-1,2′-pyrrolo[2,1-b][1,3]oxazol]-3-yl]oxy}pyridine-4-carbonitrile]	16 nM
Cc1nc(O[C@H]2C[C@@]3(C2)O[C@@H]2CC[C@@H](c4cc(F)cc(F)c4)N2C3=O)c2cccn2n1 [Example 9.29, (1r,3R,5′S,7a′R)-5′-(3,5-difluorophenyl)-3-[(2-methylpyrrolo[2,1-f][1,2,4]triazin-4-yl)oxy]tetrahydro-3′H-spiro[cyclobutane-1,2′-pyrrolo[2,1-b][1,3]oxazol]-3′-one]	47 nM
O=C1N2[C@@H](CC[C@H]2c2cc(F)cc(F)c2)O[C@]12C[C@H](Oc1ncnc3sccc13)C2 [Example 9.30, (1r,3R,5′S,7a′R)-5′-(3,5-difluorophenyl)-3-[(thieno[2,3-d]pyrimidin-4-yl)oxy]tetrahydro-3′H-spiro[cyclobutane-1,2′-pyrrolo[2,1-b][1,3]oxazol]-3′-one]	9 nM
O=C1N2[C@@H](CC[C@H]2c2cc(F)cc(F)c2)O[C@]12C[C@H](Oc1ncnc3occc13)C2 [Example 9.31, (1r,3R,5′S,7a′R)-5′-(3,5-difluorophenyl)-3-[(furo[2,3-d]pyrimidin-4-yl)oxy]tetrahydro-3′H-spiro[cyclobutane-1,2′-pyrrolo[2,1-b][1,3]oxazol]-3′-one]	9 nM
Cc1cc2c(O[C@H]3C[C@@]4(C3)O[C@@H]3CC[C@@H](c5cc(F)cc(F)c5)N3C4=O)ncnc2o1 [Example 9.32, (1r,3R,5′S,7a′R)-5′-(3,5-difluorophenyl)-3-[(6-methylfuro[2,3-d]pyrimidin-4-yl)oxy]tetrahydro-3′H-spiro[cyclobutane-1,2′-pyrrolo[2,1-b][1,3]oxazol]-3′-one]	8 nM
Cc1cc2c(O[C@H]3C[C@@]4(C3)O[C@@H]3CC[C@@H](c5cc(F)cc(F)c5)N3C4=O)ncnc2s1 [Example 9.33, (1r,3R,5′S,7a′R)-5′-(3,5-difluorophenyl)-3-[(6-methylthieno[2,3-d]pyrimidin-4-yl)oxy]tetrahydro-3′H-spiro[cyclobutane-1,2′-pyrrolo[2,1-b][1,3]oxazol]-3′-one]	8 nM
O=C1N2[C@@H](CC[C@H]2c2ccc(F)cc2)O[C@]12C[C@H](Oc1nccc3nccn13)C2 [Example 9.34, (1r,3R,5′S,7a′R)-5′-(4-fluorophenyl)-3-[(imidazo[1,2-c]pyrimidin-5-yl)oxy]tetrahydro-3′H-spiro[cyclobutane-1,2′-pyrrolo[2,1-b][1,3]oxazol]-3′-one]	19 nM
O=C1N2[C@@H](CC[C@H]2c2cc(F)cc(F)c2)O[C@]12C[C@H](Oc1cccnc1Cl)C2 [Example 9.36, (5′S,7a′R)-3-[(2-chloropyridin-3-yl)oxy]-5′-(3,5-difluorophenyl)tetrahydro-3′H-spiro[cyclobutane-1,2′-pyrrolo[2,1-b][1,3]oxazol]-3′-one]	16 nM
O=C1N2[C@@H](CC[C@H]2c2cc(F)cc(F)c2)OC12CC(Oc1ccc(F)cn1)C2 (stereo partly drawn) [Example 9.37, (5′S,7a′R)-5′-(3,5-difluorophenyl)-3-[(5-fluoropyridin-2-yl)oxy]tetrahydro-3′H-spiro[cyclobutane-1,2′-pyrrolo[2,1-b][1,3]oxazol]-3′-one]	19 nM
O=C1N2[C@@H](CC[C@H]2c2cc(F)cc(F)c2)OC12CC(Oc1ncccc1F)C2 (stereo partly drawn) [Example 9.38, (5′S,7a′R)-5′-(3,5-difluorophenyl)-3-[(3-fluoropyridin-2-yl)oxy]tetrahydro-3′H-spiro[cyclobutane-1,2′-pyrrolo[2,1-b][1,3]oxazol]-3′-one]	29 nM
O=C1N2[C@@H](CC[C@H]2c2cc(F)cc(F)c2)OC12CC(Oc1ncccc1F)C2 (stereo partly drawn) [Example 9.39, (5′S,7a′R)-5′-(3,5-difluorophenyl)-3-[(3-fluoropyridin-2-yl)oxy]tetrahydro-3′H-spiro[cyclobutane-1,2′-pyrrolo[2,1-b][1,3]oxazol]-3′-one]	47 nM
N#Cc1cc(O[C@H]2C[C@@]3(C2)O[C@@H]2CC[C@@H](c4cnccn4)N2C3=O)ncn1 [Example 9.42, 6-(((5′S,7a′R)-3′-oxo-5′-(pyrazin-2-yl)tetrahydro-3′H-spiro[cyclobutane-1,2′-pyrrolo[2,1-b]oxazol]-3-yl)oxy)pyrimidine-4-carbonitrile]	21 nM
N#Cc1cc(O[C@H]2C[C@]3(C2)O[C@@H]2CC[C@@H](c4ccccc4F)N2C3=O)ncn1 [Example 9.43, 6-{[(5′S,7a′R)-5′-(2-fluorophenyl)-3′-oxotetrahydro-3′H-spiro[cyclobutane-1,2′-pyrrolo[2,1-b][1,3]oxazol]-3-yl]oxy}pyrimidine-4-carbonitrile]	353 nM
N#Cc1cc(F)cc([C@@H]2CC[C@H]3O[C@]4(C[C@H](Oc5cc(C#N)ncn5)C4)C(=O)N32)c1 [Example 9.44, 6-(((5′S,7a′R)-5′-(3-cyano-5-fluorophenyl)-3′-oxotetrahydro-3′H-spiro[cyclobutane-1,2′-pyrrolo[2,1-b]oxazol]-3-yl)oxy)pyrimidine-4-carbonitrile]	28 nM
O=C1N2[C@@H](CC[C@H]2c2cnccn2)O[C@]12C[C@@H](Oc1ncnn3cccc13)C2 [Example 9.45, (1s,3S,5′S,7a′R)-5′-(pyrazin-2-yl)-3-(pyrrolo[2,1-f][1,2,4]triazin-4-yloxy)tetrahydro-3′H-spiro[cyclobutane-1,2′-pyrrolo[2,1-b]oxazol]-3′-one]	233 nM
O=C1N2[C@@H](CC[C@H]2c2cnccn2)O[C@]12C[C@H](Oc1ncnn3cccc13)C2 [Example 9.46, (1r,3R,5′S,7a′R)-5′-(pyrazin-2-yl)-3-(pyrrolo[2,1-f][1,2,4]triazin-4-yloxy)tetrahydro-3′H-spiro[cyclobutane-1,2′-pyrrolo[2,1-b]oxazol]-3′-one]	15 nM
